The subject of one assay is MCF-7 cells. The experiment in a line: Cytotoxicity test (MTT cell viability). It counts as cell-based, human. To be noted: 0 to 100 µM, 24 hours incubation plus 48 hours growth. As to the method: (§1) The human MCF-7 breast adenocarcinoma and murine MC3T3-E1 embryonic fibroblast cell lines were growth in RPMI 1640 and DMEM medium, respectively, supplemented with 10% heated inactivated foetal bovine serum (FBS), 1% L-glutamine, 1% penicillin-streptomycin-amphotericin B mixture. All cells were maintained at 37 °C in humidified 5% CO2 atmosphere and splitted every 2-3 day.
(§2) MCF-7 and MC3T3-E1 cells were plated in 96-well flat bottomed microassay plates (1 × 10^4 cells/well) and grown for 24 hours. After complete adhesion, (arginyl)7-maltotriosyl-N-acetyl-amino-dodecanoic acid or 2 kDa polyethylenimine (PEI) as control were added to the culture media at increasing concentrations: from 0 to 100 µM. The cells were incubated for 24 hours at 37°C and then the medium was discarded by aspiration and replaced with 200 µl of fresh medium. The cells were grown for further 48 hours. Twenty microliters of 5 mg/mL of 3-(4,5-dimethylthiazol-2-yl)-2,5-diphenyltetrazolium bromide (MTT) in D-PBS were added to each well. […] The plates were gently shaken for 30 min and absorbance was measured at 570 nm with a reference wavelength of 630 nm. The cell viability was expressed as a percent viability of treated cells against untreated cells used as control. […]

The subject of the next assay is MC3T3-E1 cells. Nature of the assay: Cytotoxicity test (MTT cell viability). Type of assay: cell-based, murine. The conditions noted are these: 0 to 100 µM, 24 hours incubation plus 48 hours growth. The method, then:
as §1, §2

A value given as a limit tells only on which side of the number the result lay.

In general, IC50 refers to the midpoint of a concentration-inhibition curve. As to “(arginyl)7-maltotriosyl-N-acetyl-amino-dodecanoic acid”, the IC50 in the assay with MCF-7 cells and in the assay with MC3T3-E1 cells was over 100 µM in each case.
